Experimental data: US5216162A, “Substituted pyrrolo[3,2-c]quinolines” (American Home Products Corporation, priority 1992, dated 1993)

Tested on: IL-1-induced release of neutral protease from rabbit articular chondrocytes
Assay: Inhibition of IL-1-induced release of neutral protease from rabbit articular chondrocytes (azocoll neutral protease assay)
Type: cell-based, rabbit (male New Zealand white)
Settings: Oryctolagus cuniculus, Chondrocyte, purified human IL-1 stimulation
Method: The ability of the compounds of the inventions to inhibit interleukin 1 is measured by the ability of the test compounds to inhibit the IL-1-induced release of neutral protease from rabbit articular chondrocytes.
This assay is carried out as follows:
Isolation of rabbit chondrocytes
Male New Zealand white rabbits are anesthetized with 50 mg/kg of ketamine (i.m.) and killed by an intracardiac injection of 3 mls of Nembutal. The knee joints of both legs are resected and the articular surfaces are exposed. Cartilage slices are obtained using a scalpel and are placed in a tissue culture dish (100 mm diameter) containing 10 mls of Hank's balanced salt solution (HBSS). The chondrocytes within the cartilage slices are then liberated by a series of enzyme digestions. The slices are incubated for 10 minutes at 37° C. in 0.05% hyaluronidase (Sigma H-3884), rinsed with HBSS and incubated with 0.2% trypsin (Sigma T-2395) for 10 minutes at 37° C. The slices are rinsed again and incubated for 10 minutes at 37° C. with 1.2% collagenase (Sigma C-5138). The slices are then rinsed again with HBSS and resuspended in 10 ml of Ham's F-12 medium containing 10% fetal bovine calf serum (FCS) and 0.2% collagenase and incubated overnight at 37° C. in a 5% CO2 incubator. The next day, the medium containing the digested cartilage fragments and liberated chondrocytes is transferred to a 15 ml centrifuge tube and the cells are collected by centrifugation and washed twice and resuspended in Ham's F-12 medium. The cells are then plated into 24-well tissue culture plates (2×10^ 5 cells/well) and incubated at […] until confluent (usually 4-6 days).
Stimulation of chondrocytes and drug treatment
The confluent chondrocytes are rinsed twice with serum-free Ham's F-12 medium and 1 ml is added to each well. Fifty μl of purified human IL-1 (100 Units/ml; Genzyme Corporation, Boston, MA) is then added to stimulate these cells to secrete neutral protease. To measure drug effects, the cells are treated with test compound 10 minutes prior to addition of IL-1. The standard screening dose is 10 μM. Twenty-four hours after IL-1 stimulation, supernatant fluids are collected and assayed for neutral protease activity.
The neutral protease activity of chondrocyte supernatant fluids is determined by their ability to degrade an insoluble protease substrate, azocoll (Sigma). Supernatants are treated for 10 minutes at room temperature with 350 μM p-aminophenylmurcuric acetate to activate the latent enzyme. Three hundred of μl of supernatant is then mixed with 500 μl of a 20 mg/ml suspension of azocoll and incubated at 37° C. for 18-24 hours with gentle rocking. The mixtures are centrifuged and the amount of substrate hydrolyzed is determined by measuring the absorbance of the supernatant at 520 nm.
Drug effects are calculated as the % change in enzyme activity (absorbance)by supernatants from drug-treated chondrocytes relative to enzyme activity of supernatants from vehicle-treated chondrocytes as follows: [formula]
Where tested in this assay, the compounds of the invention gave the following results: […]

[1] = test compound 10 min before IL-1, 24 h, read-out: % Inhibition (I.S.D.)

| Compound | inhibition at 10 µM [1] [%] | inhibition at 0.1 µM (dose 0.1 μM, test compound 10 min before IL-1, 24 h, read-out: % Inhibition (I.S.D.)) [%] | inhibition at 1 µM (dose 1 μM, test compound 10 min before IL-1, 24 h, read-out: % Inhibition (I.S.D.)) [%] | IC50 (24 h, doses 10, 1 and 0.1 μM) [nM] |
| --- | --- | --- | --- | --- |
| N#Cc1ccc(NCCc2[nH]c3c(cnc4cc(Cl)ccc43)c2C=O)cc1 [Example 1, 4-[[2-(7-Chloro-3-formyl-1H-pyrrolo[3,2-c]-quinolin-2-yl)ethyl]amino]benzonitrile] | 21 |  |  |  |
| CCOC(=O)c1ccc(NCCc2[nH]c3c(cnc4cc(Cl)ccc43)c2C=O)cc1 [Example 2, 4-[[2-(7-Chloro-3-formyl-1H-pyrrolo[3,2-c]quinolin-2-yl)ethyl]amino]benzoicacid ethyl ester] | 50 |  |  |  |
| CS(=O)(=O)c1ccc(NCCc2[nH]c3c(cnc4cc(Cl)ccc43)c2C=O)cc1 [Example 3, 7-Chloro-2-[2-[[4-(methylsulfonyl)phenyl]amino]ethyl]-1H-pyrrolo[3,2-c]quinoline-3-carboxaldehyde] | 28 |  |  |  |
| N#Cc1ccc(NCCc2[nH]c3c(cnc4cc(Cl)ccc43)c2C=NNc2ccccc2)cc1 [Example 4, 4-[[2-[7-Chloro-3-[(phenylhydrazono)methyl]-1H-pyrrolo[3,2-c]quinolin-2-yl]ethyl]amino]benzonitrile] | 52 |  |  |  |
| CCOC(=O)c1ccc(NCCc2[nH]c3c(cnc4cc(Cl)ccc43)c2C=NNc2ccccc2)cc1 [Example 5, 4-[[2-[7-Chloro-3-[(phenylhydrazono)methyl]-1H-pyrrolo[3,2-c]quinolin-2-yl]ethyl]amino]benzoic acid ethyl ester] | 54 |  |  |  |
| CS(=O)(=O)c1ccc(NCCc2[nH]c3c(cnc4cc(Cl)ccc43)c2C=NNc2ccccc2)cc1 [Example 6, 7-Chloro-2-[2-[[4-(methylsulfonyl)phenyl]amino]ethyl]-1H-pyrrolo[3,2-c]quinoline-3-carboxaldehyde phenylhydrazone] | 80 | 14 | 23 | 2900 |
